Measured values reported in ChEMBL document CHEMBL1629650 (2009).
In brackets after ≈: the same amount, converted by molar mass.

Key:
Format in all cases: functional
[1] = system: Mycobacterium tuberculosis; assay: Antibacterial activity against HYG cassette-positive Mycobacterium tuberculosis B5400 by modified conventional agar proportion method
[2] = system: Mycobacterium tuberculosis; assay: Antibacterial activity against Mycobacterium tuberculosis H37Rv by modified conventional agar proportion method
[3] = system: Mycobacterium tuberculosis; assay: Antibacterial activity against HYG cassette-positive Mycobacterium tuberculosis B5200 by modified conventional agar proportion method
[4] = system: Mycobacterium tuberculosis; assay: Antibacterial activity against HYG cassette-positive Mycobacterium tuberculosis RvAS9 by modified conventional agar proportion method
[5] = system: Mycobacterium tuberculosis; assay: Antibacterial activity against HYG cassette-positive Mycobacterium tuberculosis BAS10 by modified conventional agar proportion method
[6] = system: Mycobacterium tuberculosis; assay: Antibacterial activity against HYG cassette-positive Mycobacterium tuberculosis Rv4401 by modified conventional agar proportion method
[7] = system: Mycobacterium tuberculosis; assay: Antibacterial activity against Mycobacterium tuberculosis Beijing by modified conventional agar proportion method
[8] = system: Mycobacterium tuberculosis; assay: Antibacterial activity against HYG cassette-positive Mycobacterium tuberculosis Rv8101 by modified conventional agar proportion method
[9] = system: Mycobacterium tuberculosis; assay: Antibacterial activity against HYG cassette-positive Mycobacterium tuberculosis B5401 by modified conventional agar proportion method
[10] = system: Mycobacterium tuberculosis; assay: Antibacterial activity against HYG cassette-positive Mycobacterium tuberculosis Rv8100 by modified conventional agar proportion method
[11] = system: Mycobacterium tuberculosis; assay: Antibacterial activity against HYG cassette-positive Mycobacterium tuberculosis B5201 by modified conventional agar proportion method
[12] = system: Mycobacterium tuberculosis; assay: Antibacterial activity against HYG cassette-negative Mycobacterium tuberculosis H37Rv by modified conventional agar proportion method
[13] = system: Mycobacterium tuberculosis; assay: Antibacterial activity against HYG cassette-negative Mycobacterium tuberculosis Beijing by modified conventional agar proportion method
[14] = system: Mycobacterium tuberculosis; assay: Antibacterial activity against HYG cassette-positive Mycobacterium tuberculosis Rv4400 by modified conventional agar proportion method

CC[C@@H](CO)NCCN[C@@H](CC)CO [ETHAMBUTOL]
MIC [1]: 5 µg/mL (≈ 24.5 µM)
MIC [2]: 5 µg/mL (≈ 24.5 µM)
MIC [3]: 5 µg/mL (≈ 24.5 µM)
MIC [4]: 5 µg/mL (≈ 24.5 µM)
MIC [5]: 5 µg/mL (≈ 24.5 µM)
MIC [6]: 10 µg/mL (≈ 48.9 µM)
MIC [7]: 5 µg/mL (≈ 24.5 µM)
MIC [8]: 5 µg/mL (≈ 24.5 µM)
MIC [9]: 5 µg/mL (≈ 24.5 µM)
MIC [10]: 5 µg/mL (≈ 24.5 µM)
MIC [11]: 5 µg/mL (≈ 24.5 µM)
MIC [12]: 5 µg/mL (≈ 24.5 µM)
MIC [13]: 5 µg/mL (≈ 24.5 µM)
MIC [14]: 10 µg/mL (≈ 48.9 µM)
